Activity calls are given as the source filed them. No rule for the calls is given here.
Tested on: GENE-TOX genotoxicity assays, various organisms and cells
Experiment: GENE-TOX mutagenicity studies
Conditions: for call: Assay Type: In vivo carcinogenicity studies
[1] = Species/Cell Type: Fischer rat embryo (RLV/1706) cells, Assay Type: Cell transformation, viral enhanced, Assay Code: CTR+, Evaluation Type: Evaluation A (Pre-1980)
[2] = Species/Cell Type: Nonhuman, Assay Code: CCGT, Evaluation Type: Evaluation A (Pre-1980)
[3] = Species/Cell Type: Salmonella typhimurium (one or more of the five standard strains: TA98, TA100, TA1535, TA1537, and TA1538), Assay Type: Histidine reverse gene mutation, Ames assay, Assay Code: SAL+*, Activation: With metabolic activation, Evaluation Type: Evaluation A (Pre-1980)

## CC(=O)Nc1cccc2c1-c1ccccc1C2
Species/Cell Type: Escherichia coli polA (W3110 vs P3478), Assay Type: Rec-assay, DNA effects (bacterial DNA repair), Assay Code: RE2-, Evaluation Type: Evaluation A (Pre-1980)
  mutagenic call: inactive; negative
Species/Cell Type: Escherichia coli polA (W3119 vs P3478), Assay Type: Rec-assay, DNA effects (bacterial DNA repair), Assay Code: RE1T, Evaluation Type: Evaluation A (Pre-1980)
  mutagenic call: no conclusion
[1]
  mutagenic call: active; positive
Species/Cell Type: Mammalian polychromatic erythrocytes, Assay Type: Micronucleus test, chromosome aberrations, Assay Code: MNTT, Evaluation Type: Evaluation A (Pre-1980)
  mutagenic call: no conclusion
Species/Cell Type: Mouse (BALB/c-3T3) cells, Assay Type: Cell transformation, Assay Code: CTB+D, Dose Response: With dose response, Evaluation Type: Evaluation A (Pre-1980)
  mutagenic call: active; positive
Species/Cell Type: Mouse lymphoma (L5178Y) cells, Assay Type: Forward gene mutation at the thymidine kinase (TK) locus, chromosome aberrations, Assay Code: L51+*, Activation: With metabolic activation, Evaluation Type: Evaluation A (Pre-1980)
  mutagenic call: active; positive
[2]
  call: no conclusion
Species/Cell Type: Nonhuman, Assay Type: Sister-chromatid exchange (SCE) in vitro, Assay Code: SC2T, Evaluation Type: Evaluation B (Post-1980)
  mutagenic call: no conclusion
Species/Cell Type: Rat primary hepatocytes, Assay Type: Unscheduled DNA synthesis (UDS) in vitro, DNA effects, Assay Code: UDP-, Evaluation Type: Evaluation A (Pre-1980)
  mutagenic call: inactive; negative
Species/Cell Type: Saccharomyces cerevisiae, Assay Type: Mitotic recombination or gene conversion, Assay Code: YEH-, Evaluation Type: Evaluation A (Pre-1980)
  mutagenic call: inactive; negative
[3]
  mutagenic call: active; positive
Species/Cell Type: Salmonella typhimurium, Assay Type: Forward and reverse gene mutation, host-mediated assay, Assay Code: HMA-, Evaluation Type: Evaluation A (Pre-1980)
  mutagenic call: inactive; negative
Species/Cell Type: Syrian hamster embryo (SHE) cells, Assay Type: Cell transformation, clonal assay, Assay Code: CTC-, Evaluation Type: Evaluation A (Pre-1980)
  mutagenic call: inactive; negative

## O=NN(CCCl)C(=O)NC(NC(=O)N(CCCl)N=O)(c1ccccc1)c1ccccc1
Species/Cell Type: Drosophila melanogaster, Assay Type: Sex-linked recessive lethal gene mutation, Assay Code: SRL+, Evaluation Type: Evaluation A (Pre-1980)
  mutagenic call: active; positive

## [Cl][Pt-2]([Cl])([Cl])([Cl])([Cl])[Cl]
Species/Cell Type: Bacillus subtilis (H17 vs M45), Assay Type: Rec-assay, spot test, DNA effects (bacterial DNA repair), Assay Code: REW+, Evaluation Type: Evaluation A (Pre-1980)
  mutagenic call: active; positive

## Cc1c2c(cc3ccccc13)-c1ccccc1C(O)C2O (stereo not given)
Species/Cell Type: Chinese hamster lung (V79) cells, Assay Type: Forward gene mutation at the HPRT or ouabain locus, Assay Code: V79-*, Activation: With metabolic activation, Evaluation Type: Evaluation A (Pre-1980)
  mutagenic call: inactive; negative
[2]
  call: no conclusion
Species/Cell Type: Nonhuman, Assay Type: Sister-chromatid exchange (SCE) in vitro, Assay Code: SC2T, Evaluation Type: Evaluation A (Pre-1980)
  mutagenic call: no conclusion
Species/Cell Type: Salmonella typhimurium (one or more of the five standard strains: TA98, TA100, TA1535, TA1537, and TA1538), Assay Type: Histidine reverse gene mutation, Ames assay, Assay Code: SALT, Evaluation Type: Evaluation A (Pre-1980)
  mutagenic call: no conclusion

## C=C1[C@@H](C)[C@H]2[C@H](Cc3ccccc3)NC(=O)[C@]23OC(=O)/C=C/[C@H](O)CCC[C@@H](C)C/C=C/[C@H]3[C@@H]1O
Species/Cell Type: Bacillus subtilis (H17 vs M45), Assay Type: Rec-assay, spot test, DNA effects (bacterial DNA repair), Assay Code: REW-, Evaluation Type: Evaluation A (Pre-1980)
  mutagenic call: inactive; negative

## CCN(CC)CCNc1ccc(O)c2c1C(=O)c1ccccc1S2=O (stereo not given)
[1]
  mutagenic call: active; positive

## c1ccc2cc(C3CO3)ccc2c1 (stereo not given)
Species/Cell Type: Salmonella typhimurium (one or more of the five standard strains: TA98, TA100, TA1535, TA1537, and TA1538), Assay Type: Histidine reverse gene mutation, Ames assay, Assay Code: SAL+, Evaluation Type: Evaluation A (Pre-1980)
  mutagenic call: active; positive

## Cc1ccc2c(C)c(C)[nH]c2c1
Species/Cell Type: Human lymphocytes, Assay Type: Sister-chromatid exchange (SCE) in vitro, Assay Code: SCL+, Evaluation Type: Evaluation B (Post-1980)
  mutagenic call: active; positive
Species/Cell Type: Human, Assay Type: Sister-chromatid exchange (SCE) in vitro, Assay Code: SC1+, Evaluation Type: Evaluation B (Post-1980)
  mutagenic call: active; positive

## Clc1ccccc1
Species/Cell Type: Mammalian polychromatic erythrocytes, Assay Type: Micronucleus test, chromosome aberrations, Assay Code: MNT+, Evaluation Type: Evaluation B (Post-1980)
  mutagenic call: active; positive

## O=NN(CCO)CCO
Species/Cell Type: Mammalian polychromatic erythrocytes, Assay Type: Micronucleus test, chromosome aberrations, Assay Code: MNTT, Evaluation Type: Evaluation B (Post-1980)
  mutagenic call: no conclusion
Species/Cell Type: Nonhuman, Assay Code: CCG+, Evaluation Type: Evaluation A (Pre-1980)
  call: active; positive

## CCN(CCCCCCN(CC)C(=O)C(Cl)Cl)C(=O)C(Cl)Cl
Species/Cell Type: Human, Sex: Male, Assay Type: Sperm morphology, Assay Code: SPH+, Evaluation Type: Evaluation A (Pre-1980)
  mutagenic call: active; positive

## CCN(CCCl)CCCNc1ccnc2cc(Cl)ccc12
Species/Cell Type: Neurospora crassa, Assay Type: Reverse gene mutation, Assay Code: NER+, Evaluation Type: Evaluation A (Pre-1980)
  mutagenic call: active; positive

## CC(=O)Oc1cc(OC(C)=O)c2c(=O)c(OC(C)=O)c(-c3ccc(OC(C)=O)c(OC(C)=O)c3)oc2c1
[3]
  mutagenic call: active; positive
